Test results taken from patent publication US20260184708A1, “PYRIDAZINONES AND METHODS OF USE THEREOF” (GFB (ABC), LLC, priority 2017, published 2026).
Like-named read-outs stand apart in the source and are kept apart here.

Target: T1, TRPC5 (Homo sapiens, UniProt Q9UL62)
T1 construct: expressed in transfected cells; host or cells: HEK 293
T1 sequence (Q9UL62 1-973): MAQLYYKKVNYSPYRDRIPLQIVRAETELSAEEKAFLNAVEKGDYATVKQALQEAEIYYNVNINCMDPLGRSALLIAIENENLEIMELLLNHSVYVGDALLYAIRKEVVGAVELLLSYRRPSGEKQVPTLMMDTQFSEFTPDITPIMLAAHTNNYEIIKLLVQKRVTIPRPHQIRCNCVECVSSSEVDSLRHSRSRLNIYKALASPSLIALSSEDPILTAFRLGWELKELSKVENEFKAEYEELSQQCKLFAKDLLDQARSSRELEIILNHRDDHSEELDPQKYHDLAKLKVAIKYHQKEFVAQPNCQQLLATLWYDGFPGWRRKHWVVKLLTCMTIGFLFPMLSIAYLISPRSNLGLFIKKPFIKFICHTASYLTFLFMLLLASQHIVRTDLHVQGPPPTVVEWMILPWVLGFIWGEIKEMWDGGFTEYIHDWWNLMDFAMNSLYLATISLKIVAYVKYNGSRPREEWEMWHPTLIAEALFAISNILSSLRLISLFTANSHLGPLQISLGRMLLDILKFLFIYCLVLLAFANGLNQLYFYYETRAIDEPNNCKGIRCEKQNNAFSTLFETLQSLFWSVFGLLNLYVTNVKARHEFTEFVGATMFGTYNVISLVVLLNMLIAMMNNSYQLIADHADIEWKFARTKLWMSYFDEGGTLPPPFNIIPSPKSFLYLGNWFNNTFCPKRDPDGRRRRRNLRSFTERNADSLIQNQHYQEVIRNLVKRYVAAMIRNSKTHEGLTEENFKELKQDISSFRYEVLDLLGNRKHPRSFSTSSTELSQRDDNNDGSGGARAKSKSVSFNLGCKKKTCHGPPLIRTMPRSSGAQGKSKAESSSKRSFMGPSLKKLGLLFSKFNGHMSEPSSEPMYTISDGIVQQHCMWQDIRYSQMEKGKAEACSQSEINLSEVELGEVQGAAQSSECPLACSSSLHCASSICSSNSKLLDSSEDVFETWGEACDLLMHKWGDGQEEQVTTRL
Assay: TRPC5 Fluorescence Assay - FLIPR format (HEK-TREx hTRPC5, Riluzole stimulation)
Format: cell-based
Description: • Cell line: ICLN-001633 • Base Cell: HEK • Channel: TRPC5 • Species: Human • Thaw ID: multiple • Passage: multiple
FLIPR Assay Buffer (Earls Balanced Salt Solution (EBSS) was prepared as follows:
Test Agent Preparation: Compounds were made up to, or supplied as, a 10 mM stock solution generally using DMSO as the vehicle. 10-point dose response curves were generated using the Echo-550 acoustic dispenser. Compound source plates were made by serially diluting compound stocks to create 10 mM, 1 mM, and 0.1 mM solutions in DMSO into Echo certified LDV plates. The Echo then serially spotted 100% DMSO stock solutions into source dose response plates to generate a 4-fold dilution scheme. 100% DMSO was added to the spotted dose response plates to bring the final volume to 5 μl. […] of the dose response stock plate was then spotted into pre-incubation and stimulation assay plates. 50 μl of pre-incubation buffer and 100 μl of stimulation buffer was then added to the plates resulting in a final assay test concentration range of 30 μM to 0.0001 μM with a final DMSO concentration of 0.3%.
Experimental Methods: Cells expressing TRPC5 (HEK-TREx hTRPC5) are plated onto 384 well, black PDL-coated microplates and maintained in TRPC5 growth media the day prior to use for experiments. TRPC5 expression is induced by the application of […] tetracycline at the time of plating. Media is removed from the plates and 10 μl of 4 μM of Fluo-4 AM (mixed with equal volume of Pluronic F-127) in EBSS is added to the cells. Cells are incubated at room temperature, protected from light, for 60-90 minutes. After the incubation period, the dye is removed and replaced with 10 μl of EBSS. Cell, pre-incubation and stimulation plates are loaded onto the FLIPR-II and the assay is initiated. The FLIPR measures a 10 second baseline and then adds 10 μl of 2× compounds (or controls). Changes in fluorescence are monitored for an additional 5 minutes. After the 5 minute pre-incubation, 20 μl of 2× Riluzole (with 1× compound or controls) is added to the cell plate. The final Riluzole stimulation concentration in the assay is 30 μM. After the Riluzole addition, changes in fluorescence are monitored for an additional 5 minutes.
Test Agent Effect: Test agent modulation of TRPC5 calcium response was determined as follows. After the Riluzole, fluorescence was monitored for a 5 minute period. The maximum relative fluorescene response (minus the control response of 1 μM of the control inhibitor) was captured and exported from the FLIPR. Test agent effect was calculated as % inhibition using the following formula: % inhibition=((RFU Test Agent−Plate Average RFU REF INHIB)/(Plate Average RFU Control−Plate Average RFU REF INHIB))×100

[1] = Table 10, read-out: TRPCS-FLIPR IC50
[2] = Table 9, read-out: hTRPCS-FLIPR IC50

Row | IC50 [1] [nM] | IC50 [2] [nM] | SMILES
1 | 0.01 to 1000 |  | [2H]c1nc2c(n1Cc1ccccc1C(F)(F)F)CCN(c1cn[nH]c(=O)c1Cl)C2
2 |  | 0.01 to 1000 | C[C@@H](c1ccccc1C(F)(F)F)N1CCN(c2cn[nH]c(=O)c2Cl)CC1=O [drawing 1044]
3 | 0.01 to 1000 |  | COCc1ccccc1Cn1cnc2c1CCN(c1cn[nH]c(=O)c1Cl)C2 [drawing 1053]
4 | 0.01 to 1000 |  | COCc1ncccc1Cn1cnc2c1CCN(c1cn[nH]c(=O)c1Cl)C2 [drawing 1065]
5 | 0.01 to 1000 |  | CCS(=O)(=O)c1nc2c(n1Cc1ccccc1C(F)(F)F)CCN(c1cn[nH]c(=O)c1Cl)C2 [drawing 1079]
6 | 0.01 to 1000 |  | O=c1[nH]ncc(N2CCc3c(c(=O)[nH]n3Cc3ccccc3C(F)(F)F)C2)c1Cl [drawing 1081]
7 | 0.01 to 1000 |  | C[C@@H]1Cc2c(c(C(N)=O)nn2Cc2ccccc2C(F)(F)F)CN1c1cn[nH]c(=O)c1Cl [drawing 1118]
8 | 0.01 to 1000 |  | COC[C@H](c1ccccc1C(F)(F)F)n1cnc2c1CCN(c1cn[nH]c(=O)c1Cl)C2 [drawing 1120]
9 | 0.01 to 1000 |  | C[C@H](c1ccccc1C(F)(F)F)n1nc(C(N)=O)c2c1CCN(c1cn[nH]c(=O)c1Cl)C2 [drawing 1123]
10 | 0.01 to 1000 |  | O=c1[nH]ncc(N2CCc3c(nnn3Cc3ccc(F)cc3CC(F)(F)F)C2)c1Cl [drawing 1131]
11 | 0.01 to 1000 |  | CNC(=O)c1nc2c(n1Cc1ccccc1C(F)(F)F)CCN(c1cn[nH]c(=O)c1Cl)C2 [drawing 1134]
12 | 0.01 to 1000 |  | NC(=O)c1nc2c(n1Cc1ccccc1C(F)(F)F)CCN(c1cn[nH]c(=O)c1Cl)C2 [drawing 1135]
13 | 0.01 to 1000 |  | O=c1[nH]ncc(N2CCc3c(ncn3Cc3ccccc3Cl)C2)c1Cl [drawing 1139]
14 | 0.01 to 1000 |  | CS(=O)(=O)c1nc2c(n1Cc1ccccc1C(F)(F)F)CCN(c1cn[nH]c(=O)c1Cl)C2 [drawing 1142]
15 | 0.01 to 1000 |  | O=c1[nH]ncc(N2CCc3c(Cc4ccc(F)cc4C(F)(F)F)n[nH]c3C2)c1Cl [drawing 1153]

Continued, molecule first:

Row | SMILES | IC50 [1] [nM] | IC50 [2] [nM]
16 | C[C@H](c1ccc(F)cc1C(F)F)n1nc(C(N)=O)c2c1CCN(c1cn[nH]c(=O)c1Cl)C2 | 0.01 to 1000 | 
17 | C[C@H](c1ccc(F)cc1C(F)(F)F)N1C[C@@H](C)N(c2cn[nH]c(=O)c2Cl)CC1=O [drawing 1048] |  | 0.01 to 1000
18 | C[C@@H](c1ccc(F)cc1C(F)(F)F)N1CCN(c2cn[nH]c(=O)c2Cl)CC1=O [drawing 1049] |  | 0.01 to 1000
19 | C[C@@H]1Cc2c(nnn2[C@@H](C)c2ccccc2C(F)(F)F)CN1c1cn[nH]c(=O)c1Cl [drawing 1071] | 0.01 to 1000 | 
20 | C[C@H](c1ccccc1C(F)(F)F)n1nnc2c1CCN(c1cn[nH]c(=O)c1Cl)[C@H]2C [drawing 1078] | 0.01 to 1000 | 
21 | C[C@@H]1Cc2c(nnn2[C@@H](C)c2ccc(F)cc2C(F)(F)F)CN1c1cn[nH]c(=O)c1Cl [drawing 1085] | 0.01 to 1000 | 
22 | C[C@H](c1ccc(F)cc1C(F)(F)F)n1nnc2c1CCN(c1cn[nH]c(=O)c1Cl)[C@H]2C [drawing 1092] | 0.01 to 1000 | 
23 | C[C@H](c1ccccc1C(F)F)n1nnc2c1CCN(c1cn[nH]c(=O)c1Cl)C2 [drawing 1100] | 0.01 to 1000 | 
24 | C[C@@H](c1ccccc1C(F)F)n1nnc2c1CCN(c1cn[nH]c(=O)c1Cl)C2 [drawing 1106] | 0.01 to 1000 | 
25 | C[C@@H](c1ccc(F)cc1C(F)F)n1nnc2c1CCN(c1cn[nH]c(=O)c1Cl)C2 [drawing 1107] | 0.01 to 1000 | 
26 | CNC(=O)c1nn([C@H](C)c2ccccc2C(F)F)c2c1CN(c1cn[nH]c(=O)c1Cl)CC2 [drawing 1113] | 0.01 to 1000 | 
27 | CC(c1ccc(F)cc1C(F)F)n1nc(C(N)=O)c2c1CCN(c1cn[nH]c(=O)c1Cl)C2 (centres unmarked) [drawing 1114] | 0.01 to 1000 | 
28 | CNC(=O)c1nn(Cc2ccc(F)cc2C(F)F)c2c1CN(c1cn[nH]c(=O)c1Cl)CC2 [drawing 1117] | 0.01 to 1000 | 
29 | C[C@@H](c1cccnc1CC(F)F)n1nnc2c1CCN(c1cn[nH]c(=O)c1Cl)C2 [drawing 1125] | 0.01 to 1000 | 
30 | C[C@H](c1ccccc1Cl)n1nnc2c1CCN(c1cn[nH]c(=O)c1Cl)C2 [drawing 1133] | 0.01 to 1000 | 
31 | O=c1[nH]ncc(N2CCc3c(ncn3Cc3ccc(F)cc3Cl)C2)c1Cl [drawing 1136] | 0.01 to 1000 | 
32 | C[C@@H](c1ccccc1Cl)n1nnc2c1CCN(c1cn[nH]c(=O)c1Cl)C2 [drawing 1140] | 0.01 to 1000 | 
33 | CN(c1ncc2c(n1)CN(c1cn[nH]c(=O)c1Cl)C2)c1ccc(F)cc1Cl [drawing 1144] | 0.01 to 1000 | 
34 | CCN(c1ncc2c(n1)CN(c1cn[nH]c(=O)c1Cl)C2)c1ccccc1Cl [drawing 1148] | 0.01 to 1000 | 
35 | CCc1ncccc1N(C)c1ncc2c(n1)CN(c1cn[nH]c(=O)c1Cl)C2 [drawing 1154] | 0.01 to 1000 | 
